This passage reports in vivo half-life and IC50 results from paper PMC5324734, “DOTA-Derivatives of Octreotide Dicarba-Analogs with High Affinity for Somatostatin sst2,5 Receptors” (Frontiers in Chemistry, 2017).

For data set [1] the following is noted: native hormone; ref Weckbecker et al., 2003; cited from earlier work. From the text:
Radiolabeled peptides, targeting specific receptors of malignant cells, in primis GPCRs, have emerged in the past years as one of the most promising tools for diagnosis and therapy of several kinds of metastatic tumors which express these receptors (Ramogida and Orvig, [2013]). Somatostatins SRIF-14 and SRIF-28 are peptide hormones, which have a wide range of pharmacological actions on exocrine and endocrine secretions (Brazeau et al., [1973]) mediated by direct interaction with at least five GPCRs. Chemically, they are -S-S- bridged cyclic peptides containing 14 and 28 amino acids, respective ...

Data set [2] has as its target T1, sst5 receptor (Homo sapiens, UniProt P35346).
T1 construct: host or cells: CHO cells (membrane pellets)
Nature of the data set: Somatostatin receptor affinity, displacement of 125I-[LTT]-SRIF-28 (sst5). It is filed as binding. The conditions noted are these: complete displacement of [Leu8,D-Trp22,125I-Tyr25]-SRIF-28; cell membrane pellets from sst5-expressing human CHO cells; CEREP; mean ± SEM of three independent repetitions. How it is done: (§1) Determination of Somatostatin receptors affinity was performed at CEREP (Le Bois l'Evêque, B. P. 3,001, 86,600 Celle l'Evescault, France). Cell membrane pellets were prepared from human sst2-expressing endogeneous IMR32 cells, and sst5-expressing human CHO cells. For each of the tested compounds, complete displacement experiments with the universal SRIF radio-ligand [Leu^8, D-Trp^22, ^125I-Tyr^25]-SRIF-28 (125I-[LTT]-SRIF-28) (2000 Ci/mmol; Anawa, Wangen, Switzerland) were performed. As control, unlabeled seglitide and SRIF-14 were run in parallel, using the same increasing concentrations, with sst2 and sst5 subtypes, respectively. IC50 values were calculated by non-linear regression analysis of the competition curves generated with mean replicate values using Hill equation curve. The analysis was performed using software developed at CEREP (Hill software) and validated by comparison with data generated by the commercial software SigmaPlot 4.0 for Windows.
(§2) The three DOTA conjugated compounds 3b, 4b, and 5b were tested for their ability to bind to the sst2 and sst5 receptors subtypes in complete displacement experiments using the universal somatostatin radioligand [^125I]-[Leu^8,D-Trp^22,Tyr^25]-somatostatin-28. IC50 values were calculated after quantification of the data using a computer-assisted image processing system (Table 1). Receptor subtypes sst2 and sst5 were chosen for preliminary binding assays because of their overexpression in some tumor types (Miller et al., [1995]). In Table 1, the affinities of the parent unconjugated compounds 3a, 4a, and 5a are also reported for comparison (Di Cianni et al., [2010]).

Data set [3] deals with T2, sst2 receptor (Homo sapiens, UniProt P30874).
T2 construct: Cell membrane pellets were prepared from human sst2-expressing endogeneous IMR32 cells; host or cells: IMR32 cells (membrane pellets)
T2 sequence (P30874 whole entry): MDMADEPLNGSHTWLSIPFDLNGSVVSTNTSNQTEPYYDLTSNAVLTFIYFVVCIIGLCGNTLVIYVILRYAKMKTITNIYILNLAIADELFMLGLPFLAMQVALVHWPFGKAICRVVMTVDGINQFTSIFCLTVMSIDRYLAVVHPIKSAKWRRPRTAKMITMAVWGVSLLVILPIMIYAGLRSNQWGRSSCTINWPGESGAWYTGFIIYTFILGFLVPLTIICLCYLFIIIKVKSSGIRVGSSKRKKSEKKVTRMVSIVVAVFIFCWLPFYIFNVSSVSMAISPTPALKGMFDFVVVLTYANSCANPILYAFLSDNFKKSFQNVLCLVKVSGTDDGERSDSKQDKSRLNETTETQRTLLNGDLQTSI
Nature of the data set: Somatostatin receptor affinity, displacement of 125I-[LTT]-SRIF-28 (sst2). The data set is classed as binding. The following applies: complete displacement of [Leu8,D-Trp22,125I-Tyr25]-SRIF-28; cell membrane pellets from human sst2-expressing endogeneous IMR32 cells; CEREP; mean ± SEM of three independent repetitions. How it is done: as §1, §2

The target in data set [4] is T2, sst2 receptor. Also on record: method as in Di Cianni et al., 2010. The conditions noted are these: free (unconjugated) dicarba-analogs; mean ± SEM; data published previously; ref Di Cianni et al., 2010; cited from earlier work.
In data set [5] the target is T1, sst5 receptor. Also on record: method as in Di Cianni et al., 2010. The conditions noted are these: free (unconjugated) dicarba-analogs; mean ± SEM; data published previously; ref Di Cianni et al., 2010; cited from earlier work.

Where “and” joins values, the source holds several entries; their conditions need not be identical. Identical values can stand only once. Like-named read-outs stand apart in the source and are kept apart here. Where a SMILES comes first, the peptide text is derived from it. Bridges are numbered along the chain shown (N, C = ends). [ ]: non-standard residue; d: D form. The star is where a group is joined. DOTA = O=C(O)CN1CCN(CC(=O)O)CCN(CC(=O)*)CCN(CC(=O)O)CC1; 1Nal = N[C@@H](Cc1cccc2ccccc12)C(=O)O; Thr(ol) = C[C@@H](O)[C@H](N)CO; AllylGly = C=CC[C@H](N)C(=O)O; Bn = c1ccc(C*)cc1 A value given as a limit tells only on which side of the number the result lay.

T1 sequence (P35346 whole entry): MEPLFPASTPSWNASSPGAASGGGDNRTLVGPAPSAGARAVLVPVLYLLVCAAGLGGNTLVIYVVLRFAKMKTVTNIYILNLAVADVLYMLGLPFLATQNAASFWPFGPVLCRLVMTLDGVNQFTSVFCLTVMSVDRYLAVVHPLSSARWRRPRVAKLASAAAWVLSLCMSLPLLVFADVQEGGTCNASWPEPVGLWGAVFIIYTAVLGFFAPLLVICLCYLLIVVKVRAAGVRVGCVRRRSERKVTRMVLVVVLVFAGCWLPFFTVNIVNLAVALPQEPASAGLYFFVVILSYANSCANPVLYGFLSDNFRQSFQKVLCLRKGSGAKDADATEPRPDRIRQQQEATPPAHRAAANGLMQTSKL

As to “SRIF-14: native somatostatin peptide hormone, -S-S- bridged cyclic peptide containing 14 amino acids”, the in vivo half-life in data set [1] is listed as less than 3 min.
The IC50 is the concentration that gives 50% inhibition. Regarding `C[C@@H](O)[C@@H](CO)NC(=O)[C@@H]1C/C=C\C[C@H](NC(=O)[C@@H](Cc2ccccc2)NC(=O)CN2CCN(CC(=O)O)CCN(CC(=O)O)CCN(CC(=O)O)CC2)C(=O)N[C@@H](Cc2cccc3ccccc23)C(=O)N[C@H](Cc2c[nH]c3ccccc23)C(=O)N[C@@H](CCCCN)C(=O)N[C@@H](Cc2ccc(OCc3ccccc3)cc2)C(=O)N1` [Compound 5b] ({DOTA}-[dF][AllylGly][1Nal][dW]KY(Bn)[AllylGly][Thr(ol)]; staple (Z) 2-7), the IC50 at sst5 receptor [2] was 12 ± 2.6 nM; on sst2 receptor [3] it was > 100 nM and 160 nM.
Turning to `C[C@@H](O)[C@@H](CO)NC(=O)[C@@H]1C/C=C\C[C@H](NC(=O)[C@@H](Cc2ccccc2)NC(=O)CN2CCN(CC(=O)O)CCN(CC(=O)O)CCN(CC(=O)O)CC2)C(=O)N[C@@H](Cc2ccccc2)C(=O)N[C@H](Cc2c[nH]c3ccccc23)C(=O)N[C@@H](CCCCN)C(=O)N[C@@H](Cc2ccc(OCc3ccccc3)cc2)C(=O)N1` [Compound 4b] ({DOTA}-[dF][AllylGly]F[dW]KY(Bn)[AllylGly][Thr(ol)]; staple (Z) 2-7), the IC50 on sst5 receptor [2] is 91 ± 7.8 nM; at sst2 receptor [3], greater than 300 nM.
`C[C@@H](O)[C@@H](CO)NC(=O)[C@@H]1C/C=C\C[C@H](NC(=O)[C@H](N)Cc2ccccc2)C(=O)N[C@@H](Cc2cccc3ccccc23)C(=O)N[C@H](Cc2c[nH]c3ccccc23)C(=O)N[C@@H](CCCCN)C(=O)N[C@@H](Cc2ccc(OCc3ccccc3)cc2)C(=O)N1` [Compound 5a] (H-[dF][AllylGly][1Nal][dW]KY(Bn)[AllylGly][Thr(ol)]; staple (Z) 2-7): the IC50 on sst2 receptor [4] was 101 ± 9 nM; at sst5 receptor [5], 4.9 ± 1 nM.
As for `C[C@@H](O)[C@@H]1NC(=O)[C@H](CCCCN)NC(=O)[C@@H](Cc2c[nH]c3ccccc23)NC(=O)[C@H](Cc2cccc3ccccc23)NC(=O)[C@@H](NC(=O)[C@H](N)Cc2ccccc2)C/C=C\C[C@@H](C(=O)N[C@H](CO)[C@@H](C)O)NC1=O` [Compound 3a] (H-[dF][AllylGly][1Nal][dW]KT[AllylGly][Thr(ol)]; staple (Z) 2-7), the IC50 on sst2 receptor [4] is 9.6 ± 0.9 nM; at sst5 receptor [5], 16.5 ± 4.5 nM.
Turning to `C[C@@H](O)[C@@H]1NC(=O)[C@H](CCCCN)NC(=O)[C@@H](Cc2c[nH]c3ccccc23)NC(=O)[C@H](Cc2cccc3ccccc23)NC(=O)[C@@H](NC(=O)[C@@H](Cc2ccccc2)NC(=O)CN2CCN(CC(=O)O)CCN(CC(=O)O)CCN(CC(=O)O)CC2)C/C=C\C[C@@H](C(=O)N[C@H](CO)[C@@H](C)O)NC1=O` [Compound 3b] ({DOTA}-[dF][AllylGly][1Nal][dW]KT[AllylGly][Thr(ol)]; staple (Z) 2-7), the IC50 at sst5 receptor [2] is 130 ± 7 nM; at sst2 receptor [3], 61 ± 5.4 nM.
With `C[C@@H](O)[C@@H](CO)NC(=O)[C@@H]1C/C=C\C[C@H](NC(=O)[C@H](N)Cc2ccccc2)C(=O)N[C@@H](Cc2ccccc2)C(=O)N[C@H](Cc2c[nH]c3ccccc23)C(=O)N[C@@H](CCCCN)C(=O)N[C@@H](Cc2ccc(OCc3ccccc3)cc2)C(=O)N1` [Compound 4a] (H-[dF][AllylGly]F[dW]KY(Bn)[AllylGly][Thr(ol)]; staple (Z) 2-7), the results for the IC50 on sst2 receptor [4] and on sst5 receptor [5] were 46 ± 3 nM and 12.3 ± 0.3 nM, respectively.
